Row | SMILES | melting point [°C]
1 | Nc1cccc(-c2ccc(CCN3CCC4(CCCC4)CC3)cc2)n1 | 130 to 132
2 | Cc1nc2cc(C3CCc4cncn43)ccc2[nH]1 (stereo not given) | 230
3 | O=c1ccn(C/C=C/COC(c2ccccc2)(c2ccccc2)c2ccccc2)c(=O)[nH]1 | 70 to 72
4 | O=C(NC/C=C\COc1cc(CN2CCCCC2)ccn1)NC1CCCCC1 | 131 to 132
5 | CC(=O)Nc1ncc2cc(-c3c(Cl)cccc3Cl)c(NC(C)=O)nc2n1 | 223 to 225
6 | COC(=O)[C@@H](NC(=O)OCc1ccccc1)C(C)C | 54 to 56
7 | CS(=O)c1ccc(-n2cnc3ccc(-c4nnc(SCc5cccc(C#N)c5)o4)cc32)cc1 (stereo not given) | 152 to 153
8 | CCCCN(CCCC)c1ccc(C=CC=CC=CC2=C(C#N)C(=C(C#N)C#N)OC2(c2ccccc2)C(F)(F)F)c(OC)c1 (stereo not given) | 208 to 210
9 | COc1ccc2c(N=O)c(O)ccc2c1 | 147 to 148
10 | CCC(=O)NCCc1cc(-c2cccc(C(=O)OC)c2)cc2ccc(OC)cc12 | 113 to 115
11 | N#CCN1CCc2ccccc2C(Oc2ccc(C(F)(F)F)cc2)C1 (stereo not given) | 125 to 129
12 | CN1CC[C@@H](c2c(O)cc(O)c3c(=O)cc(-c4cccc(Cl)c4)oc23)[C@@H]1CO | 146 to 147
13 | Cc1cc(-c2cnn3c(C(F)(F)F)cc(-c4ccc(F)c(Cl)c4)nc23)cc(C)n1 | 271
14 | OCCNc1ccnc2cc(C(F)(F)F)ccc12 | 181 to 182
15 | CC1=C(c2ccnnc2)SCC(=O)N1 | 231 to 233
16 | C[C@@H](CN1CCc2ccc3c(c21)CCS3)NC(=O)OC(C)(C)C | 170 to 172
17 | NC(=O)c1cnn2cccc2c1Nc1ccccc1 | 247
18 | CCOC(=O)c1cc2c(nc1C)C(CBr)CCCC2 (stereo not given) | 50 to 51
19 | O=C(Nc1ccc(F)cc1)NC1CC1 | 205
20 | O=C(Cc1c(-c2ccccc2)c2cc(CSc3ccccn3)c(Cl)cc2oc1=O)Nc1ccc(Cl)cc1C(F)(F)F | 213 to 215
21 | CCCCCCCCOc1cc(OC)ccc1C=O | 37 to 39
22 | Cc1ccc2cc(-c3ccc4ccc5cccc6ccc3c4c56)ccc2n1 | 133
23 | CC(=O)Nc1ccc(C#N)c(F)c1 | 190 to 192
24 | COc1cc(SC2SCC(OC(C)=O)C(OC(C)=O)C2OC(C)=O)cc(OC)c1OC (stereo not given) | 101
25 | Nc1cccc2snnc12 | 67
26 | CN1CC=C(c2c[nH]c3ccc(C[C@H]4COC(=O)N4)cc23)CC1 | 225 to 227
27 | Nc1ccc2c(c1)NC(=O)c1cscc1N2 | 212 to 215

Row | SMILES | melting point [°C]
28 | Cn1cc(C(=O)CCn2ccnc2)c2ccccc21 | 121 to 123
29 | Nc1cc([N+](=O)[O-])cnc1Nc1ccccc1F | 171 to 172
30 | Cc1nc2ccc3c(c2o1)C(O)(CC#N)C(C(C)C)C3 (stereo not given) | 149 to 152
31 | O=C1Cc2cc3c(cc2C(c2cccc([N+](=O)[O-])c2)=NN1)OCO3 | 251 to 253
32 | O=C(NN=Cc1c(O)ccc2ccccc12)c1cc2ccccc2cc1O | > 300
33 | COc1ccc(CN2C(=O)C(C)(c3ccc(F)cc3Cl)c3cc(Cl)ccc32)c(OC)c1 (stereo not given) | 166
34 | CC1=C(OCC(C)C)CC(C)(C)C1=O | 63
35 | O=C1N(Cc2ccccn2)c2ccccc2C12COc1cc3c(cc12)OCC3 (stereo not given) | 198 to 200
36 | Cc1sc2c(Sc3ccccc3)c3ccccc3c(-c3cc(Br)c(O[C@H](C)C(=O)O)c(Br)c3)c2c1C | 237 to 239
37 | CCOC(=O)c1cnc2c(c1NCCN(C)C)NC(=O)CN2 | 183 to 185
38 | CCOC(=O)C=Cc1cc(=O)c(C(=O)O)cn1-c1ccc(O)cc1C | 185 to 189
39 | CCCCCCCC(=O)OCOC1=C(C(=O)Nc2ccccn2)N(C)S(=O)(=O)c2ccccc21 | 98 to 99
40 | Clc1ccc(-c2nc(-n3cncn3)oc2CCC2=NCCO2)cc1 | 132 to 133
41 | Cc1c2c(cc3ccc(O)cc13)-c1ccc(O)cc1CO2 | 224 to 226
42 | CC(=O)N1CCC(N(C)S(C)(=O)=O)CC1 | 132
43 | CCC(=O)NCC1CN=C(c2ccccc2F)c2cc(Cl)ccc2N1 (stereo not given) | 131 to 133
44 | CCCC(=O)c1cnc2c(C)cccc2c1Nc1ccccc1C | 110 to 112
45 | COc1ccc(N=Nc2ccc(O)c(C(=O)Nc3ccc(OC)c(-c4n[nH]c5cc(C)nn45)c3)c2)cc1 | 295 to 296
46 | CN(C)C1Cc2cccc3ccn(c23)C1 (stereo not given) | 114 to 115
47 | CC(C)(C)[S@](=O)N1CCCC[C@@H]1c1ccccc1 | 45 to 50
48 | OCCNCCNc1nnc(NCCNCCO)c2cc3ccccc3cc12 | 129 to 131
49 | O=C(O)C1(C(=O)O)CC2CCC2C1 (stereo not given) | 161 to 170
50 | CCCCn1c(O)cc(C)c(C#N)c1=O | 218 to 222
51 | CC(C)(C)c1ccc(OCC(O)CN(CCO)CCO)cc1 (stereo not given) | 45 to 47
52 | O=C1C=CCC(CCc2ccccc2)(c2ccccc2)O1 (stereo not given) | 130
53 | CC(=O)c1ccc2c(c1)C(C)c1cc(C(C)=O)ccc1-2 | 128 to 129
54 | CCCCCCCCC(SCCCCCC)C(=O)Nc1c(F)ccc2ncccc12 (stereo not given) | 74 to 75

Row | SMILES | melting point [°C]
55 | C1=C(c2cc3ccccc3[nH]2)Cc2ccccc21 | 273 to 274
56 | COC(=O)c1cc2c(C)ccc(Cl)c2[nH]1 | 133 to 134
57 | CN(C)c1ccc(C(N)P(O)O)cc1 (stereo not given) | 223 to 224
58 | O=C(C(=O)c1ccc(C(F)(F)F)cc1)c1ccc(C(F)(F)F)cc1 | 141 to 142
59 | O=CC(=Cc1ccc(OCc2ccc(Cl)cc2)cc1)C(C=O)=Cc1ccc(OCc2ccc(Cl)cc2)cc1 | 208 to 209
60 | CC(C)C(=O)N[C@H]1C[C@@H](c2cc(NC(=O)Cc3cccc4ccccc34)n[nH]2)C1 | 131
61 | COc1ccc(-c2coc3ccc(-c4nnc(C)o4)cc23)cc1F | 159 to 160
62 | COC(=O)c1ccc(C(=O)NS(=O)(=O)c2ccc(CCNC(=O)c3ccccc3)cc2)cn1 | 228 to 230
63 | CCOC(=O)C(O)C1OC(n2cnc3c(N)ncnc32)C(O)C1O (stereo not given) | 265 to 268
64 | CCCc1nc(SC2CCC(=CC(=O)O)CC2)c(C(=O)O)n1Cc1cc2c(cc1Cl)OCO2 (stereo not given) | 168
65 | COc1ccc(C(=O)CCCCCBr)cc1OC | 38 to 40
66 | COC(=O)c1ccccc1Nc1ccccc1 | 92.5 to 102
67 | O=C(Nc1ccc(N2CCNCC2)cc1)c1ccccc1-c1ccc(C(F)(F)F)cc1 | 119 to 124
68 | O=C(Nc1cccnc1)N1CCN(c2nccc(-c3cc(F)ccc3F)n2)CC1 | 270 to 271
69 | CCn1ncc2c3onc(-c4cccc(Cl)c4)c3cnc21 | 178 to 179
70 | O=C1c2c(Cl)cccc2-n2cnc(-c3noc(CN4CCCCC4)n3)c2[C@@H]2CCN12 | 177 to 179
71 | CCN1CS(=C2SC(=S)N(Cc3ccccc3)C2=O)c2ccccc21 (stereo not given) | 209 to 211
72 | COc1ccccc1-c1ccc(C(=O)N2Cc3cccn3Cc3ccccc32)cc1 | 250 to 253
73 | COc1ccc(NC(=O)Cn2c3c(c4cc(Cl)c(Cl)cc42)CCN(C(=O)OC(C)(C)C)CC3)cc1 | 151 to 152
74 | COc1cc2c3c(c1)c(=O)c(C(=O)O)cn3CCC2 | 253 to 257
75 | CNc1nn2cc(-c3ccccc3)nc2s1 | 177
76 | CC(C)N(CCOc1ccc2c(=O)c3ccc(OCCN(C(C)C)C(C)C)cc3oc2c1)C(C)C | 118
77 | COc1ccc(-c2ccc(C(C)=NOCCOc3ccc(CC4SC(=O)NC4=O)cc3)cc2)c(OC)c1 (stereo not given) | 186 to 188
78 | COc1cccc(C2(C(C)(C)O)CCN(C)CC2)c1 | 100
79 | COC(=O)CNc1cccc2c1C(=O)N(C1CCC(=O)NC1=O)C2=O (stereo not given) | 210 to 212
80 | O=c1[nH]c2cc(Cl)c([N+](=O)[O-])c(Cl)c2[nH]c1=O | 320 to 325
81 | CCCN(CCC)CC(=O)Nc1ncc(Oc2cc(I)c(OC)cc2C(C)C)c(N)n1 | 129 to 131

Row | SMILES | melting point [°C]
82 | CCS(=O)(=O)Nc1cc(Cc2c[nH]cn2)ccc1F | 122 to 123
83 | CCCCc1oc2ccccc2c1-c1ncc(-c2ccc3cc(OCc4ccc(C(=O)O)cc4C(=O)O)ccc3c2)o1 | 285 to 287
84 | COC(=O)CCc1ccc(OCC(C)NCC(O)c2ccccc2)cc1 (stereo not given) | 103 to 104
85 | CN1CN(C)C(=S)N(c2ccccc2)C1 | 85 to 87
86 | O=C(NCC12CC3CC(CC(C3)C1)C2)c1cc(-c2cccnc2N2CCC(C(=O)O)CC2)ccc1Cl | 110 to 115
87 | Cc1cccc(NC(=O)NCC(=O)N(c2ccccc2)C(C)C(=O)N(C)c2ccccc2)c1 (racemic) | 214
88 | BrCc1ccc(CBr)c(Br)c1 | 90 to 91
89 | NS(=O)(=O)c1ncccc1O | 162 to 164
90 | CNCCCNCCCSP(=O)(O)O | 115 to 120
91 | COc1c([N+](=O)[O-])ccc(C=O)c1OS(=O)(=O)c1ccccc1 | 74 to 76
92 | CCOC(=O)c1ccc(Sc2cc3c(cc2C)C(C)(C)CCC3(C)C)cc1O | 74 to 75
93 | N#CC(CBr)c1ccccc1 (stereo not given) | 63
94 | Cc1ccc(-c2nc3ccccc3o2)cc1 | 113 to 114
95 | Clc1ccccc1-c1cnn2cnnc2n1 | 162 to 165
96 | COC(=O)C(OC)C(=O)Nc1cc(Cl)cc(Cl)c1 (stereo not given) | 116 to 118
97 | C#Cc1c(N)nc(-c2ccc(Cl)c(OC)c2F)nc1C(=O)OC | 174 to 176
98 | O=c1cc(-c2ccccc2)oc2ccc(OCCCCN3CCC(O)CC3)cc12 | 124 to 125
99 | CCOc1ccc(-c2ccc(Cl)cc2)cc1C=O | 88 to 90
100 | O=c1c(-c2ccccc2)c(CNc2ncnc3[nH]cnc23)oc2ccccc12 | 155 to 158
101 | CCOC(=O)c1c(C(F)(F)F)nc(C(F)(F)Cl)c(C(=O)OC)c1NC(C)(C)C | 51.5 to 53
102 | Cc1c[nH]c2ccc(O)cc12 | 116
103 | c1nnnn1C1CN2CCC1CC2 (stereo not given) | 83 to 84
104 | NNc1c([N+](=O)[O-])cnn1-c1c(Cl)cc(C(F)(F)F)cc1Cl | 133 to 135
105 | CCCCc1cc(SCc2ccc(-c3ccc(C(F)(F)F)cc3)cc2)ccc1OCC(=O)O | 155 to 157
